Assay results reported in patent US20040116523A1, “Use of c4-c10 acids for preventing gram-negative bacterial infections” (priority 2000, published 2004).

Legend:
[1] = tested on: iagA′-lacZ fusion (S. typhi strain Ty267); assay: β-galactosidase activity of the iagA′-lacZ fusion in favourable LB medium; format: cell-based; conditions: fatty acid as sodium salt, 5 mM in favourable LB medium, 6 hours at 37° C.; control 22022 ± 1177
Description: (§1) The favourable LB medium (high osmolarity and concentration of Ca^2+ions) was defined as being the standard LB medium modified so as to have a final NaCl concentration of 300 mM and a final Ca concentration of 5 mM.
Each of the strains described above was cultured at 37° C. on agar or in TCS broth. The P-galactosidase activity was determined using 4-methyl-umbelliferyl-p-D-galactopyranoside sold by the company Sigma, according to the technique of Klarsfeld et al. (Mol. Mibrobiol., 1994, 13, 585-597). The results, expressed in P-galactosidase units (fluorescence per hour and per OD600), represent the mean of the values obtained in at least three independent experiments. The standard deviations were less than 10% of the values presented. […]
The β-galactosidase activity of the iagA′-lacZ fusion was measured after incubation for 6 hours at 37° C. with shaking (200 rpm).
The S. typhi Ty267 strain (iagA′-lacZ fusion) was seeded into favourable LB medium and into favourable LB medium containing the fatty acid to be tested, in the form of its sodium salt, at the final concentration of 5 mM.

[2] = tested on: Gram-positive or Gram-negative microorganisms; conditions: acid pH (free acid form); cited from earlier work
[3] = tested on: sipB′-lacZ fusion (S. typhi strain Ty277); assay: β-galactosidase activity of the sipB′-lacZ fusion in favourable LB medium; format: cell-based
Description: as §1
(§2) Each of the strains described above was cultured at 37° C. on agar or in TCS broth. The P-galactosidase activity was determined using 4-methyl-umbelliferyl-p-D-galactopyranoside sold by the company Sigma, according to the technique of Klarsfeld et al. (Mol. Mibrobiol., 1994, 13, 585-597). The results, expressed in P-galactosidase units (fluorescence per hour and per OD600), represent the mean of the values obtained in at least three independent experiments. The standard deviations were less than 10% of the values presented.
(§3) For this, the S. typhi strains Ty267, Ty272 and Ty277, which carry the iagA′-lacZ, invF′-lacZ and sipB′-lacZ fusions, respectively, (see Table I), were cultured in the favourable LB or unfavourable LB medium.
(§4) The action of these two compounds on the expression of the iagA′-lacZ, invF′-lacZ and sipB′-lacZ fusions was studied by measuring the β-galactosidase activity expressed by these fusions as a function of the time of culturing (samples removed every two hours).

Shigella sonnei = conditions: 1.25 g/l; cited from earlier work
S. typhi strain Ty2 = assay: Mobility by the U-tube culturing technique; format: cell-based; conditions: U tube supplemented with 5 mM
Description: The mobility of each strain was studied using the U-tube culturing technique (Popoff and Le Minor, Guide pour la preparation des serum anti-Salmonella (Guide for preparing salmonella antisera], 1997). When necessary, the culture media were supplemented with chloramphenicol (Cm) at 15 μg/ml.

[4] = tested on: iagA′-lacZ fusion (S. typhi strain Ty267); assay: β-galactosidase activity of the iagA′-lacZ fusion in favourable LB medium; format: cell-based
S. enteritidis LA5 = assay: Splenic colonization of C57Bl/6 mice infected orally with S. enteritidis LA5; format: in vivo; conditions: 50 mM in drinking water pH 7.2-7.3; 10^7 bacteria per animal orally; distilled water 7.5 ± 0.3
Description: (§5) They were infected orally in the following way. The Salmonella strains were cultured in TCS broth for 18 hours at 37° C. with shaking (200 rpm). This culture was then adjusted to […] (in the stationary growth phase, 1 OD600 =1.5 ×10^9 bacteria/ml), and then the number of viable bacteria was controlled by counting on TCS agar.
(§6) On the day of infection (DO), the drinking-water bottles of the mice were replaced with bottles containing 100 ml of drinking water to which the required number of bacteria had been added.
(§7) After infection for 24 hours ([…]), the bottles containing the contaminated drinking water were replaced with bottles containing uncontaminated drinking water.
(§8) Seven days after infection (D+7), the spleens of the mice infected in this way were removed and homogenized separately in 1 ml of physiological saline containing 0.7% of NaCl.
(§9) The number of viable bacteria per spleen was determined by plating out dilutions of the homogenate, onto TCS agar.
The S. dublin strain 5917 (Coynault & Norel, Microb. Pathog., 1999, 26, 299-305) and S. enteritidis strain LAS (Thorns et al., Microb. Pathog., 1996, 20, 235-246) were used to infect C57B1/6 mice orally at the dose of 10^7 bacteria per animal.

S. typhi = conditions: 1.25 g/l; cited from earlier work
Salmonellae = assay: Bactericidal or bacteriostatic effect on the Salmonellae at neutral pH; format: cell-based, Salmonella
Vibrio cholerae = conditions: 1.25 g/l; cited from earlier work
[5] = tested on: invF′-lacZ fusion (S. typhi strain Ty272); assay: β-galactosidase activity of the invF′-lacZ fusion in favourable LB medium; format: cell-based
Description: as §1, §2, §3, §4

S. typhimurium C52 = assay: Splenic colonization of C57Bl/6 mice infected orally with S. typhimurium C52; format: in vivo
Description: The 5-6-week-old female C57Bl/6 mice used in the context of this experiment originated from the IFFA-CREDO breeding centre (LArbresle, France).
as §5, §6, §7, §8, §9
The effect of the composition of the drinking water on the splenic colonization by Salmonella was estimated using the Student's t test.
The S. typhimurium strain C52 was used to infect C57Bl/6 mice orally.
On this figure, the number of viable bacteria is given as the mean (log10) of the values ± the standard deviation. […]

[6] = concentration greater than or equal to 2.5 mM, favourable LB medium

CCCCCCCC(=O)[O-].[Na+] [sodium caprylate]
β-Galactosidase activity of the iagA′-lacZ fusion (Table VII) [1]: 445 ± 69 β-galactosidase units
bactericidal activity on a great variety of Gram-positive or Gram-negative microorganisms [2]: bactericidal activity
β-galactosidase activity expressed by the sipB′-lacZ fusion as % of that in favourable LB medium without the substance ([3]; 1 mM in favourable LB medium): ~20%
expression of the sipB gene (sipB′-lacZ fusion) [3, 6]: very strongly represses
bactericidal activity in vitro on Shigella sonnei (Shigella sonnei): no bactericidal activity
mobility of the Ty2 strain (S. typhi strain Ty2): same mobility
β-galactosidase activity expressed by the iagA′-lacZ fusion as % of that in favourable LB medium without the substance ([4]; 1 mM in favourable LB medium): ~20%
expression of the iagA gene (iagA′-lacZ fusion) [4, 6]: very strongly represses
Number of viable bacteria in the spleen (mean in log10) (S. enteritidis LA5): 3.7 ± 0.4 log10
bactericidal activity in vitro on S. typhi (S. typhi): no bactericidal activity
bactericidal or bacteriostatic effect on the Salmonellae (Salmonellae): none of these compounds has any significant bactericidal or bacteriostatic effect
bactericidal activity in vitro on Vibrio cholerae (Vibrio cholerae): no bactericidal activity
β-galactosidase activity expressed by the invF′-lacZ fusion as % of that in favourable LB medium without the substance ([5]; 1 mM in favourable LB medium): ~20%
expression of the invF gene (invF′-lacZ fusion) [5, 6]: very strongly represses
Number of viable bacteria in the spleen (mean log10) (S. typhimurium C52; 5 mM in drinking water, infectious dose 5 × 10^7 bacteria): 6.9 ± 0.5 log10
Number of viable bacteria in the spleen (mean log10) (S. typhimurium C52; 5 mM in drinking water, infectious dose 10^7 bacteria): 6.8 ± 0.2 log10
Number of viable bacteria in the spleen (mean log10) (S. typhimurium C52; 10 mM in drinking water, infectious dose 5 × 10^7 bacteria): 6.5 ± 0.4 log10
Number of viable bacteria in the spleen (mean log10) (S. typhimurium C52; 10 mM in drinking water, infectious dose 10^7 bacteria): 6.5 ± 1.4 log10
factor of decrease of the bacterial load in the spleen (S. typhimurium C52; 50 mM in drinking water from two days before infection, 5 × 10^7 bacteria, seventh day of infection): approximately 1 000
Number of viable bacteria in the spleen (mean log10) (S. typhimurium C52; 50 mM in drinking water, infectious dose 10^7 bacteria, distilled water 7.2 ± 0.3): 2.3 ± 0.4 log10
protective effect (in words) (S. typhimurium C52; 5 or 10 mM in the drinking water, whatever the infectious dose): no longer has a significant protective effect
